# Where two headings read alike, the source gives them in different places.
# Columns and labels:
# NSCLC patients = details: cited from earlier work
# [1] = system: patients with second and third-line NSCLC; details: for Difference in ORR, % (95% CI): Erlotinib + MetMAb vs Erlotinib + Placebo
# Excerpt: The original protocol for this study was described, e.g., in WO2010/045345; however, the study was later modified to add enrollment of 50 patients with squamous cell histology as follows. […] During this study, patients and treating individuals, including the investigators, were blinded to the treatment assignment of study drug (MetMAb or placebo).
# During the study, data on tumor measurement and survival status were collected for evaluation of PFS, overall survival (OS) and overall response rate (ORR). CT scans were obtained at baseline and for the first four cycles at an approximately every 6 week intervals (i.e., every two three-week cycles of MetMAb/placebo). After four cycles, routine CT scans were performed approximately every 9 weeks (every 3 cycles of MetMAb/placebo). FDG-PET imaging is obtained at baseline and at Day 10-14 of Cycle 1. During the course of this study, an Image Reading facility (IRF) evaluated FDG-PET results and determined whether FDG-PET imaging should continue in all participating sites or whether FDG-PET imaging should be confined to a few sites based on data received.
# The primary outcome measure of this study was progression free survival (PFS) defined by the Response Evaluation Criteria In Solid Tumors (RECIST)) 1.0 or death from any cause within thirty days of the last treatment.
# (a) overall response (OR) (partial response plus complete response) as determined using RECIST 1.0 in Met positive tumors and overall; and
# (c) Overall survival (time from randomization until death from any cause within 30 days of the last study treatment).
# Kaplan-Meier methodology was used to estimate the median PFS for each treatment arm. The stratification factors were determined by the […] (CRF) data, not by data collected by the interactive voice […] system at the time of randomization unless the CRF data was missing. Estimation of the hazard ration (i.e., the magnitude of the treatment effect and the 95% confidence interval) was determined using a stratified Cox regression model with an indicator variable for MetMAb treatment. The same analysis methods as those described for PFS in “overall” population patients were applied to patients with met positive tumors and to patients with SCC histology. All deaths from any cause within 30 days of the last treatment were included as PFS events. Objective response was defined as a complete or partial response determined on two consecutive occasions greater than or equal to four weeks apart. Patients without a post-baseline tumor assessment were considered non-responders. An estimate of the objective response rate and 95% confidence interval (Blyth-Still-Casella) was calculated for each treatment arm. Confidence intervals for the difference in tumor response rate (Satnes and Snell 1980; Berger and Boos 1994) were calculated. For patients with an objective response, duration of objective response was defined as the time from the initial response to disease progression or death from any cause within 30 days of the last treatment. Methods for handling censoring and for analysis were the same as described for PFS. All secondary efficacy endpoints were assessed for patients with met positive tumors, patients with SCC histology and by “overall” patient population.
# [2] = system: patients with advanced NSCLC; assay: Exploratory biomarker analyses from OAM4558g (MET FISH, mRNA by qRT-PCR) with outcome; format: in vivo, human
# Protocol: MET and EGFR gene copy numbers were evaluated by fluorescent in situ hybridization (FISH). […] True MET amplification was defined as tight gene cluster of greater than or equal to 15 copies of MET in greater than or equal to 10% of tumor cells or a MET/CEP7 ratio of greater than or equal to 2.
# MET, HGF, EGFR, AREG, and EREG mRNA expression was evaluated on RNA extracted from macro-dissected tumor tissue slides using the Fluidigm platform. Transcript levels were normalized to the mean of two reference genes that are stably expressed in lung tissue and results are expressed as normalized expression values (2^−ΔCt).
# Exploratory tumor biomarkers related to c-Met and/or EGFR signaling were measured by FISH, qRT-PCR or various mutation detection techniques from archival tumor tissue specimens. Plasma HGF levels were measured by ELISA. Analyses with outcome were carried out independent of Met clinical diagnostic status.
# [3] = system: patients with second and third-line NSCLC; details: in vivo
# Excerpt: (§1) This study was a Phase II, double-blind, randomized, multicenter trial designed to evaluate the preliminary activity and safety of treatment with MetMAb plus Erlotinib versus Erlotinib plus placebo in second and third-line NSCLC. […] Once 120 patients, comprising the “overall” population were enrolled, eligibility was restricted to patients with squamous cell carcinoma (SCC) histology to ensure that a total of approximately 80 patients with SCC are enrolled in the study. Randomization for the first 120 patients comprising the “overall” population was stratified by smoking status (non-smokers and smokers who have quit more than 10 years ago versus current smokers and smokers who have quit less than 10 years ago), performance status and histology, and randomization for the next 50 SCC patients will be stratified by smoking status and performance status. Treatment in each arm was continued until progression of disease, unacceptable toxicity, or any other discontinuation criterion was met. Upon disease progression, patients randomized to the Erlotinib plus placebo arm were given the option to receive MetMAb (in addition to continuing Erlotinib), provided they continue to meet eligibility criteria. Safety data collected from this cross-over was summarized for hypothesis generating purposes.
# (§2) Primary and secondary efficacy analyses included all randomized patients, with patients allocated to the treatment arm to which they were randomized. Safety analyses included all randomized patients who received at least one dose of study treatment, with patients allocated to the treatment arm associated with the regimen actually received. Demographic and baseline characteristics (e.g. age and sex) were summarized using means, standard deviations, medians, and ranges for continuous variables and proportions for categorical variables, as appropriate. Summaries were presented by overall patient population and by treatment arm. The baselines value of any variable were defined as the last available value prior to the first administration of study treatment.
# (§3) The dose of MetMAb was 15 mg/kg intravenously on Day 1 of a 3-week cycle. The weight at screening was used to determine the actual dose of MetMAb. The dose of erlotinib was 150 mg by mouth each day of a 3-week cycle. Dosage level for erlotinib may have been reduced to 100 mg (first reduction) or 50 mg (second reduction) for toxicity likely attributable to erlotinib (e.g., rash, diarrhea).
# [4] = system: patients with second and third-line NSCLC; assay: Phase II trial of MetMAb plus erlotinib versus erlotinib plus placebo: safety, disposition and exposure
# Excerpt: as §1, §2, §3
# [5] = Met High, data cut-off Jun. 8, 2010
# [6] = Met Low, data cut-off Jun. 8, 2010
# [7] = Met diagnostic negative patients, MetMAb+erlotinib vs erlotinib and placebo, data cut-off Nov. 15, 2010
# [8] = Met diagnostic positive patients, MetMAb plus erlotinib vs placebo+erlotinib, data cut-off Nov. 15, 2010
# [9] = Met diagnostic positive patients, data cut-off Nov. 15, 2010
# [10] = Met high patients, MetMAb plus erlotinib vs placebo plus erlotinib, data cut-off Jun. 8, 2010
# [11] = Met high patients, data cut-off Jun. 8, 2010
# [12] = Met low patients, ME vs erlotinib and placebo, data cut-off Jun. 8, 2010
# [13] = Overall, data cut-off Jun. 8, 2010
# [14] = overall (ITT) population, MetMAb plus erlotinib vs placebo plus erlotinib, data cut-off Jun. 8, 2010
# [15] = overall (ITT) population, MetMAb plus erlotinib vs placebo plus erlotinib, data cut-off Nov. 15, 2010
# [16] = Met Diagnostic-Negative, data cut-off Nov. 15, 2010
# [17] = Met Diagnostic-Positive, data cut-off Nov. 15, 2010
# [18] = all patients, data cut-off Jun. 8, 2010
compound,measurement,setting,value
Nc1nc2[nH]cc(CCc3ccc(C(=O)N[C@@H](CCC(=O)O)C(=O)O)cc3)c2c(=O)[nH]1 [Pemtrexed],efficacy in SCC,"NSCLC patients; NSCLC SCC, Scagliotti et al, 2008",relatively lower efficacy
same,activity in adenocarcinoma,"NSCLC patients; NSCLC adenocarcinoma, Scagliotti et al, 2008",active
"Erlotinib + MetMAb: MetMAb (15 mg/kg IV q3wks) plus erlotinib treatment, interchangeably termed ME",overall survival treatment effect HR (unstratified Cox model),[1]; 10% Met diagnostic positive and not Met diagnostic positive using the 50% cutoff,2.83
same,overall survival treatment effect HR (unstratified Cox model),[1]; 10% Met diagnostic positive patients (>=10% tumor cells IHC 2+ or 3+),0.52
same,overall survival treatment effect HR (unstratified Cox model),[1]; 90% Met diagnostic positive patients,0.30
same,"Difference in ORR, % (95% CI)",[1]; [5],5.2 (−6.0-16.5) %
same,# pts PD by RECIST,[1]; [5],n = 17
same,No. of patients with OR (%),[1]; [5],3 (8.6) No. of patients (%)
same,Pattern of progression: PD by new lesions,[1]; [5],9 (52.9)
same,Pattern of progression: PD on target lesions,[1]; [5],11 (64.7)
same,PFS benefit by subgroup,"[1]; Met IHC status 0 and 1 patients, data cut-off Jun. 8, 2010",did not benefit
same,PFS benefit by subgroup,"[1]; Met IHC status 3 and 2 patients, data cut-off Jun. 8, 2010",showed benefit
same,# pts PD by RECIST,[1]; [6],n = 15
same,Pattern of progression: PD by new lesions,[1]; [6],7 (46.7)
same,Pattern of progression: PD on target lesions,[1]; [6],11 (73.3)
same,OS benefit by subgroup,"[1]; Met diagnostic negative IHC status 0 and 1 patients, data cut-off Nov. 15, 2010",did not benefit
same,OS HR,[1]; [7],1.78
same,PFS HR,[1]; [7],1.82
same,OS benefit by subgroup,"[1]; Met diagnostic positive IHC status 3 and 2 patients, data cut-off Nov. 15, 2010",showed benefit
same,OS Hazard ratio (HR),[1]; [8],0.37
same,PFS Hazard ratio (HR),[1]; [8],0.53
same,median OS,[1]; [9],12.6 months
same,median PFS,[1]; [9],2.9 months
same,overall survival treatment effect HR (unstratified Cox model),[1]; Met diagnostic positive using 50% cutoff,0.38
same,overall survival treatment effect HR (unstratified Cox model),[1]; Met diagnostic positive using 50% cutoff and not 90% Met diagnostic positive,0.75
same,OS benefit by subgroup,"[1]; Met high IHC status 3 and 2 patients, data cut-off Jun. 8, 2010",showed benefit
same,OS Hazard ratio (HR),[1]; [10],0.55
same,PFS Hazard ratio (HR),[1]; [10],0.56
same,median OS,[1]; [11],7.7 weeks
same,median PFS,[1]; [11],12.4 weeks
same,OS HR,"[1]; Met high population excluding patients with known EGFR mutations, relative to placebo+erlotinib, data cut-off Jun. 8, 2010",0.55
same,OS benefit by subgroup,"[1]; Met low IHC status 0 and 1 patients, data cut-off Jun. 8, 2010",did not benefit
same,OS HR,[1]; [12],3.26
same,PFS HR,[1]; [12],2.01
same,patients progressed by the first assessment (CAT scan at week 6),"[1]; Met low patients, data cut-off Jun. 8, 2010",~70%
same,patients progressed by the first assessment (CAT scan at week 6),"[1]; Met low patients, data cut-off Nov. 15, 2010",~70%
same,"Difference in ORR, % (95% CI)",[1]; [13],1.6 (−6.3-9.4) %
same,No. of patients with OR (%),[1]; [13],4 (6.3) No. of patients (%)
same,OS HR,[1]; [14],1.09
same,PFS HR,[1]; [14],1.09
same,OS Hazard ratio,[1]; [15],0.8
same,PFS Hazard ratio,[1]; [15],1.09
same,Objective response rate,"[1]; overall population, data cut-off Jun. 8, 2010",6.3%
same,outcome HR,"[2]; AREG mRNA High, MetMAb + Erlotinib vs Placebo + Erlotinib",0.77
same,outcome Median (mo),[2]; AREG mRNA Low (median 7.11),6.5 mo
same,outcome HR,"[2]; AREG mRNA Low, MetMAb + Erlotinib vs Placebo + Erlotinib",1.31
same,outcome Median (mo),[2]; EGFR mRNA High (median 7.75),7.1 mo
same,outcome HR,"[2]; EGFR mRNA High, MetMAb + Erlotinib vs Placebo + Erlotinib",1.1
same,outcome Median (mo),[2]; EGFR mRNA Low (median 7.75),11.7 mo
same,outcome HR,"[2]; EGFR mRNA Low, MetMAb + Erlotinib vs Placebo + Erlotinib",0.88
same,outcome Median (mo),[2]; EREG mRNA High (median 0.26),10.2 mo
same,outcome HR,"[2]; EREG mRNA High, MetMAb + Erlotinib vs Placebo + Erlotinib",0.67
same,outcome Median (mo),[2]; EREG mRNA Low (median 0.26),8.1 mo
same,outcome HR,"[2]; EREG mRNA Low, MetMAb + Erlotinib vs Placebo + Erlotinib",1.34
same,outcome Median (mo),[2]; MET mRNA High (median 3.16),8.7 mo
same,outcome HR,"[2]; MET mRNA High, MetMAb + Erlotinib vs Placebo + Erlotinib",0.59
same,outcome Median (mo),[2]; MET mRNA Low (median 3.16),11.7 mo
same,outcome HR,"[2]; MET mRNA Low, MetMAb + Erlotinib vs Placebo + Erlotinib",1.48
same,All adverse events: Dyspnea,[3],7 (20.0) n (%)
same,Grade 3-5 adverse events: Pneumonia,[3],1 (2.9) n (%)
same,Patient disposition: Adverse events,[3],7 (10.9) n (%)
same,Safety: tolerability,[3],well-tolerated
same,Summary of safety data: Adverse events leading to death,"[4]; Met Diagnostic Negative, data cut-off Nov. 15, 2010",3 (9.7) No. of patients (%)
same,Summary of safety data: Adverse events leading to death,"[4]; Met Diagnostic Positive, data cut-off Nov. 15, 2010",1 (2.9) No. of patients (%)
same,Patient disposition: Death,[4]; [16],2 (6.5) No. of patients (%)
same,Patient disposition: Disease progression,[4]; [16],22 (71.0) No. of patients (%)
same,Patient disposition: Death,[4]; [17],0 No. of patients (%)
same,Patient disposition: Disease progression,[4]; [17],18 (51.4) No. of patients (%)
same,Summary of safety: AEs leading to death,[4]; [5],1 (2.9) n (%)
same,All adverse events: Dyspnea,[4]; [6],4 (14.8) n (%)
same,Summary of safety: AEs leading to death,[4]; [6],4 (14.8) n (%)
same,Grade 3-5 adverse events: Pneumonia,"[4]; Met low, data cut-off Jun. 8, 2010",4 (14.8) n (%)
same,Patient disposition: Deaths,[4]; [18],2 (3.1) n (%)
same,Patient disposition: Disease progression,[4]; [18],34 (53.1) n (%)
bevacizumab: anti-VEGF antibody,bleeding risk,NSCLC patients; in vivo,increased bleeding risk
"MetMAb: known recombinant, humanized, monovalent monoclonal antibody directed against c-met",OS HR,[2]; EGFR-wildtype patients that were Met diagnostic positive and MET FISH negative,0.45
same,outcome HR,"[2]; EGFR-wildtype patients, MET FISH positive at lower threshold ≧4 copies",0.89
same,frequency of peripheral edema in MetMAb treated arms,"[4]; both Met diagnostic positive and diagnostic negative populations, data cut-off Nov. 15, 2010",higher
